Experiments:
[1] = test system: HCT-116 p21^+/+; conditions: cited from earlier work
[2] = test system: HCT-116 p21^−/−; conditions: cited from earlier work
[3] = test system: OSBP1 localization in A549 cells; assay: OSBP1 localization by immunofluorescence microscopy, A549; type: cell-based, human
Experimental: (§1) Immunofluorescence microscopy. HCT-116 or A549 (adenocarcinomic human alveolar basal epithelial) cells were plated on coverslips in 6-well plates. After 72 h, the culture media was removed and replaced with media containing either compound or vehicle control. At the indicated time-points, the cells were fixed for 10 min using 3.7% formaldehyde in PBS. The coverslips were washed with PBS and permeabilized for 5 min with 0.5% Triton X-100 in PBS. Following PBS washing, the coverslips were blocked for 30 min using Image-iT™ FX (Invitrogen), washed with PBS, and then blocked for 30 min at room temperature (RT) with 1% BSA in PBS (BSA/PBS). The coverslips were then incubated overnight at 4° C. with a primary antibody solution in BSA/PBS. The coverslips were washed with BSA/PBS and incubated for 60 min at RT with Alexa Fluor®-conjugated secondary antibodies (Invitrogen) in BSA/PBS, with the final 30 min including incubation with Hoescht 33258. The coverslips were then washed sequentially with BSA/PBS, PBS, and water and finally mounted on microscope slides using Aqua Poly/Mount (Polysciences Inc.). Imaging data was acquired using Zeiss LSM 510 META scanning confocal microscope.
Perturbations of OSBP1 localization by 1, 2, and 4b in A549 cells were also observed.

[4] = test system: HCT-116 cells; assay: Growth inhibition with 25-OHC co-administration; type: cell-based, human; conditions: 10 μM 25-OHC for 1 and 2
Experimental: 25-OHC (11) is a high-affinity ligand of OSBP1 and ORP4L that is not cytotoxic at concentrations up to 10 μM. Example 1 established that the ORPphilins compete with 25-OHC for binding to OSBP1 and ORP4L (FIG. 2D,E). Therefore, if OSBP1 and ORP4L mediate the biological activities of these compounds, co-administration of sub-lethal doses of 25-OHC with the ORPphilins should inhibit binding of the ORPphilins to OSBP1 and ORP4L, thereby desensitizing cells to the cytotoxic effects of the ORPphilins.

[5] = test system: CHO-K1 cells; assay: Sphingomyelin biosynthesis, [3H]-serine pulse-labeling, CHO-K1; type: cell-based
Experimental: Sphingomyelin is biosynthesized from ceramide at the Golgi apparatus. Ceramide is primarily transported from the ER to the Golgi by ceramide transport protein (CERT), and the transport activity of CERT is both OSBP1- and VAP-A dependent. […] To determine whether the ORPphilins affect sphingomyelin synthesis, pulse-labeling with [^3H]-serine was performed in CHO-K1 and HCT-116 cells and the amount of tritium incorporated into sphingomyelin and other lipids then measured. Cells were treated with vehicle or compound for 6 h, and in the last 2 h the cells were pulsed with 10 μCi [^3H]-serine. Lipids were extracted and isolated by TLC, and label incorporation into sphingomyelin was measured by scintillation counting.

[6] = test system: HeLa cells overexpressing OSBP1-myc-his or ORP4L-myc-his; assay: Overexpression-viability assay, OSBP1-myc-his or ORP4L-myc-his; type: cell-based; conditions: 48 h, vs lacZ
Experimental: (§2) Overexpression-viability assays with wild-type and mutant OSBP/ORP4L constructs were carried out by transfecting HeLa cells with the appropriate plasmids using Lipofectamine™ LTX with PLUS™ reagent (Invitrogen) as instructed, and after 8 h of transfection, the cells were re-plated for the cell viability assay, performed as described above. Expression levels were evaluated by immunoblotting at the time of dosing.

[7] = test system: HCT-116 p21^−/− cells with OSBP1-targeting shRNA; assay: OSBP1 shRNA knockdown/dose-shift experiment; type: cell-based, human; conditions: shOSBP1 vs shNT, 72 h
Source text: FIG. 3A is a series of four bar graphs depicting knockdown/dose-shift experiment in HCT-116 p21^−/− cells stably transfected with either OSBP1-targeting shRNA (shOSBP1) or non-targeting shRNA (shNT). Bars represent s.d. of three or four individual experiments. * P=0.0002 (n=3); ** P=0.0006 (n=4); *** P=0.0003 (n=3) compared to shNT cells (two-tailed students t-test).
To ascertain if the antiproliferative activity of the ORPphilins depended on the levels of OSBP1 and ORP4L in cells, short hairpin RNA (shRNA) knockdown of OSBP1 expression was performed and then its effect on the growth inhibitory activity of 1, 2, and 4a measured. […] Similar results were obtained in HeLa cells. Overexpression of OSBP1-myc-his or ORP4L-myc-his (FIG. 3C) for 48 h desensitized HeLa cells to the antiproliferative activity of 1, 2, or 4a by ˜2-5-fold (FIG. 3D). However, taxol-induced growth inhibition was not affected by overexpression of OSBP1-myc-his or ORP4L-myc-his (FIG. 3D).

[8] = test system: HeLa cells overexpressing OSBP1(M446W)-myc-his; assay: Overexpression-viability assay, OSBP1(M446W)-myc-his; type: cell-based; conditions: 48 h
Experimental: as §2
(§3) For additional support that OSBP1 and ORP4L are targets of the ORPphilins, dominant drug-resistant alleles of these proteins were sought. 15 OSBP1 residues inside and outside the region of the protein previously reported to mediate sterol binding were mutated (FIG. 4C). The growth inhibition induced by the ORPphilins was determined in HeLa cells overexpressing either wild-type or mutant OSBP1-myc-his proteins. Expression of wt OSBP1-myc-his and mutant OSBP1-myc-his were nearly equivalent as measured by western blot.
(§4) The same mutant caused a 3.9-fold reduction in the antiproliferative activity of OSW-1 (2) (FIG. 4E2) and a 2.7-fold reduction in the activity of schweinfurthin A (4a) (FIG. 4E3). […] The antiproliferative activity of taxol was unaffected by expression of these two OSBP1 mutant proteins (FIGS. 4E4, 4E8).

[9] = test system: HeLa cells overexpressing OSBP1(V582M); assay: Overexpression-viability assay, OSBP1(V582M)-myc-his; type: cell-based; conditions: 48 h
Experimental: as §2, §3, §4

[10] = test system: OSBP1 localization in HCT-116 cells; assay: OSBP1 localization by immunofluorescence microscopy, HCT-116; type: cell-based, human; conditions: 4 h treatment
Experimental: as §1
Although the function of OSBP1 is not yet fully elucidated, several cellular activities have been observed. For instance, OSBP1 translocates from cytoplasmic sites to the trans-Golgi network (TGN) upon addition of 25-OHC to cells. HCT-116 cells were treated with ORPphilins for short time periods (4 h) and the effects on OSBP1 localization monitored using immunofluorescence microscopy.
OSBP1 (green) and trans-Golgi protein P230 (red) were visualized in HCT-116 cells using indirect immunofluorescence microscopy. Cells were treated with compound for 4 h, fixed with 3.7% formaldehyde/PBS, washed, and permeabilized using 0.5% Triton X-100 in PBS. Proteins were labelled using specific primary antibodies against OSBP1 and P230 overnight at 4° C. After washing, cells were treated with Alexa Fluor 488 and Alexa Fluor 546 secondary antibodies for 1 h at RT.

[11] = target: T1, ORP4L-myc-his (Homo sapiens, UniProt Q969R2); assay: [3H]-25-hydroxycholesterol charcoal-dextran binding assay with ORP4L-myc-his; conditions: read-out: [^3H]-25-OHC K1 (nM) ORP4L-myc-his; competition with 20 nM [3H]-25-OHC, HEK-293T S100 lysate, 4° C., 16 h
T1 sequence (Q969R2 1-916): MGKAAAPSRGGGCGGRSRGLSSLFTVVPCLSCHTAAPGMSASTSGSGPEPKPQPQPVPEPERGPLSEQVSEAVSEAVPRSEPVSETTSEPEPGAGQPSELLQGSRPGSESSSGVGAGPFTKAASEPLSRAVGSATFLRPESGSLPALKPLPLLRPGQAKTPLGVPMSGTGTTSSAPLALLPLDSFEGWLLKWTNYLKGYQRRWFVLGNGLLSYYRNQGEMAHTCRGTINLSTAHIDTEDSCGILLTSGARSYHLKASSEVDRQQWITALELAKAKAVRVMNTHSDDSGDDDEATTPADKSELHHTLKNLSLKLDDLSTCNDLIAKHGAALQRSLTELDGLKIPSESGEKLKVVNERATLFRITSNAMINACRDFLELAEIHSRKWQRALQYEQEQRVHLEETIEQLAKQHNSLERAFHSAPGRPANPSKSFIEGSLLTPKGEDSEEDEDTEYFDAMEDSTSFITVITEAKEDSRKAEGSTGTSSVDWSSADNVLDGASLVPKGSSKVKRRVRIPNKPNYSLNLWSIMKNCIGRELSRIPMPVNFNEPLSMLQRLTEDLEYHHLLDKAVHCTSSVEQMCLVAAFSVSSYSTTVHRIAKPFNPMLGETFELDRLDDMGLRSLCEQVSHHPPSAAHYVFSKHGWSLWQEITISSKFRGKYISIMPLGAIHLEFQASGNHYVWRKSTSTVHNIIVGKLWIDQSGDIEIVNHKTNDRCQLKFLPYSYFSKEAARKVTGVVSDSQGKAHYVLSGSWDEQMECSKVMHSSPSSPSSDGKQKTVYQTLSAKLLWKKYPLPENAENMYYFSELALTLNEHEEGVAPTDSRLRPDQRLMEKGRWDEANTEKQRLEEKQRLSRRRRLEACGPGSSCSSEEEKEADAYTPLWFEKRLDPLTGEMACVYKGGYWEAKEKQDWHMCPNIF
Experimental: [^3H]-25-Hydroxycholesterol charcoal-dextran binding assay. […] These vectors were transfected into HEK-293T cells using Lipofectamine™2000 (Invitrogen), and 48 h after transfection, on-plate lysis of the transfected cells with the M-Per®/HALT™ with EDTA (ThermoScientific) reagent was performed, followed by ultracentrifugation at 100,000 g. The S100 lysate was diluted to 0.2 mg/mL, aliquoted and stored at −80° C. until use. The HEK-293T OSBP1-, ORP4L- or lacZ-myc-his lysate was incubated with [^3H]-25-hydroxycholesterol at 4° C. for 16 h in 96-well plates. After incubation, charcoal/dextran (C/D) was added to the wells for 30 min of shaking at RT, followed by centrifugation for 15 min at 1900 g to pellet the C/D. The C/D-cleared lysate was added to MicroScint™-20 (PerkinElmer) scintillation fluid, and the remaining protein-bound radiolabel was quantified using a TopCount™ scintillation counter. [^3H]-25-hydroxycholesterol binding curves and competition curves were repeated at least three times.
Lysates were thawed on ice, with brief periods of hand warming. Both the ^3H-25-OHC direct binding assays and the ^3H-25-OHC competition binding assays were set up similarly, with a large stock of binding assay lysate being prepared, then 73.5 μL of the binding assay mixture dispensed using a multi-channel pipettor into “V”-shaped 96-well plates. For the ^3H-25-OHC direct binding assay, 1.5 μL of ^3H-25-OHC and ^3H-25-OHC/40×25-OHC added to the wells in dilutions in 100% ethanol. For the ^3H-25-OHC competition binding assays, ^3H-25-OHC was added to the large stock of binding assay lysate to a final concentration of 20 nM. This ^3H-25-OHC-containing binding lysate was then dispensed using a multi-channel pipettor into the 96-well plates. Then, 1.5 μL of a serial dilution of the inhibitors in either 100% ethanol (25-OHC) or DMSO (the ORPphilins) was added to each well.
The binding lysate used in each well of the 96-well plate consisted of 60 μL of 0.2 mg/mL S100 lysate, 7.5 μL 20% PVA, and 5.6 μL 2M KCl. For ^3H-25-OHC binding curve experiments, 0.4 μL of buffer was then added (total volume per well: 73.5 μL). For the ^3H-25-OHC inhibition competition assays, 0.11 μL of 13.2 μM ^3H-25-OHC and 0.29 μL binding buffer was added for each well (total volume per well: 73.5 μL).
Binding assays were incubated, standing, for 16 h at 4° C. Then 30 μL of the rt C/D solution was multichannel pipetted into new “V’ shaped 96-well plates, and 60 μL of the binding lysate mixture was then added. The plates were briefly, lightly vortexed (˜10 sec), 10 and then rocked at 250 rpm for 30 min at rt. The plates were then centrifuged at 1900 g for 15 min at 4° C. in Microplate Carriers (Sorvall cat. #75006449S) in a Sorvall Legend RT centrifuge. Carefully so as to not disturb the C/D pellet, 30 μL of the supernatant was transferred to 170 μL of Microscint-20 in the OptiPlates. The plates were sealed with the TopSealA-Films, and vigorously vortexed (max speed, >1 min). ^3H-25-OHC detection in the wells was then performed using a TopCount Scintillation detector, counting each well for 2 min. Data was graphed and analyzed using GraphPad PrismS, using non-linear regression to determine KD and K1 values.
Binding experiments were performed at 4° C. for 16 h. Unbound sterol was removed using dextran-coated charcoal, and protein-bound sterol left in the supernatant was quantified by scintillation counting. Ki-values were determined as mean±s.d. from at least three independent experiments.

[12] = target: T2, OSBP1-myc-his (Homo sapiens, UniProt P22059); assay: [3H]-25-hydroxycholesterol charcoal-dextran binding assay with OSBP1-myc-his; conditions: competition with 20 nM [3H]-25-OHC, HEK-293T S100 lysate, 4° C., 16 h; read-out: [^3H]-25-OHC K1 (nM) OSBP1-myc-his
T2 construct: made in house; host or cells: HEK-293T (transient transfection; S100 lysate, not purified)
T2 sequence (P22059 1-807): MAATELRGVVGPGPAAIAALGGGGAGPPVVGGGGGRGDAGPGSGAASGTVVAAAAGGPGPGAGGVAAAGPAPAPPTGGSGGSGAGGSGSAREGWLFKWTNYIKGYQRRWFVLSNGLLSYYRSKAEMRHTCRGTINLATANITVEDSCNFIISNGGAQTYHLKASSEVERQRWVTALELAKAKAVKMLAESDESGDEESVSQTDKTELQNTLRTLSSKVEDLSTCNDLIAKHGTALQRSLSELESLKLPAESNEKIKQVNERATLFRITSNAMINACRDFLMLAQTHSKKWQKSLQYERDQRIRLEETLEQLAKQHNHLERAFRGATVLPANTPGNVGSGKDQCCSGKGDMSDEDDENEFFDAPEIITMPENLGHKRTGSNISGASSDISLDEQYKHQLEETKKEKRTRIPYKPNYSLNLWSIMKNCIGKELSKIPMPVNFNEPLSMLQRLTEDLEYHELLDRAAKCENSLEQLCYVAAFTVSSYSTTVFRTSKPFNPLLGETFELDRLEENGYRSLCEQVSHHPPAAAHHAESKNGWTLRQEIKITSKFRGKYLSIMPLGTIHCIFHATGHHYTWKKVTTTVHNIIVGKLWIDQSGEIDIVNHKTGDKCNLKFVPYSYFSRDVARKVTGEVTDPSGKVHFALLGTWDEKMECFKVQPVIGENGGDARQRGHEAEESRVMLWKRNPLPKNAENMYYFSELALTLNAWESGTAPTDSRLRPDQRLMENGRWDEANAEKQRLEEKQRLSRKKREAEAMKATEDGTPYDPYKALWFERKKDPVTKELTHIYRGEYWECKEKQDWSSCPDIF
Source text: [^3H]-25-Hydroxycholesterol charcoal-dextran binding assay.
Methods are described above in the General Methods section.

Q: Which results are given for `CC(/C=C/C=C(C)/C=C/C=C(\C)C(=O)O)=C1/C(=O)C[C@H]2[C@@]3(C)CCC(=O)C(C)(C)[C@@H]3CC[C@]12C` [(−)-stellettin E, (−)-Stellettin E]?
A: GI50 [1]: 4.57 µM; GI50 [2]: 39 nM; times more cytotoxic to HCT-116 p21−/− than to parental HCT-116 [2]: 117 times

Q: Which OSBP1 localization [3] does the source give for `COc1cc(/C=C/c2cc(O)c(C/C=C(\C)CCC=C(C)C)c(O)c2)cc2c1O[C@]1(C)C[C@@H](O)[C@@H](O)C(C)(C)[C@H]1C2` [Schweinfurthin B, schweinfurthin B] here?
A: The OSBP1 localization was “perinuclear OSBP1-staining similar to 25-OHC”.

Q: Which results are given for `CC(=O)O[C@H]1C(=O)[C@@]2(C)[C@H]([C@H](OC(=O)c3ccccc3)[C@]3(O)C[C@H](OC(=O)[C@H](O)[C@@H](NC(=O)c4ccccc4)c4ccccc4)C(C)=C1C3(C)C)[C@]1(OC(C)=O)CO[C@@H]1C[C@@H]2O` [taxol]?
A: effect of 25-OHC co-administration on the antiproliferative activity [4]: did not affect; inhibition of SM biosynthesis (negative controls) [5]: did not occur; desensitization by overexpression of OSBP1-myc-his or ORP4L-myc-his [6]: not affected; sensitization by OSBP1 knockdown (GI50 shift) [7]: did not sensitize; reduction in antiproliferative activity at the GI50 level, OSBP1(M446W) vs wt OSBP1 [8]: unaffected; reduction in antiproliferative activity, OSBP1(V582M) vs wt OSBP1 [9]: unaffected

Q: For `C/C=C(/C)C(=O)O[C@H]1C(C)=C2[C@H]([C@@H]1OC(=O)CCCCCCC)[C@@](C)(OC(C)=O)C[C@H](OC(=O)CCC)[C@@]1(O)[C@H]2OC(=O)[C@@]1(C)O` [thapsigargin], which “inhibition of SM biosynthesis (negative controls)” value [5] is on record?
A: The value was “did not occur”.

Q: What does the source list for ritterazine B?
A: OSBP1 localization [10]: effect was also observed; Ki [11]: > 360 nM; Ki [12]: 28 ± 4 nM

— patent US9790253B2, “OSW-1 analogs and conjugates, and uses thereof” (priority 2011, dated 2017)
